Data: patent US8206756B2, “Herbal composition for inflammatory disorders” (Piramal Life Sciences Limited, priority 2005, dated 2012)

Tests used:
IL-8 = assay: LPS-stimulated IL-8 release in hPBMCs (ELISA); type: cell-based; conditions: Homo sapiens; LPS-stimulated hPBMC
Protocol: Primary screening—Human peripheral blood mononuclear cells (hPBMCs). TNF-α production by lipopolysaccharides (LPS) in hPBMCs was measured according to the method described by Jansky, L. et al (Physiol. Res. 52: 593-598, (2003)). Blood was collected from healthy donors into Potassium EDTA vacutainer tubes (BD vacutainer). The PBMCs were isolated using gradient centrifugation in Histopaque-1077 solution (Sigma). Isolated PBMCs were suspended in RPMI 1640 culture medium (Gibco BRL, Pasley, UK) containing 10% fetal bovine serum (FBS) (Hyclone, Utah, USA), 100 U/ml penicillin (Sigma Chemical Co. St Louis, Mo.) and 100 μg/ml streptomycin (Sigma Chemical Co. St Louis, Mo.). The cell concentration was adjusted to 1×10^6 cells/ml. The viability as determined by trypan blue dye exclusion was uniformly ≧98%. […] The % inhibition was recorded. Percent cytotoxicity of the test samples compared to control was evaluated.
The effect of the plant extract on the proinflammatory cytokines: TNF-α, interleukin-1β (IL-1β), interleukin-6 (IL-6) and interleukin-8 (IL-8) was measured using the supernatants generated in the primary screening assay. […]
The effect of the Compound 1, on the proinflammatory cytokines: TNF-α interleukin-1β (IL-1β), interleukin-6 (IL-6) and interleukin-8 (IL-8) was measured using the supernatants generated in the primary screening assay. […]

TNF-α = TNF-α production by synovial cells from a RA patient; type: cell-based; conditions: Homo sapiens, Synovial cell, 10 hours
Protocol: Cytokine production by synovial cells obtained from a rheumatoid arthritis (RA) patient undergoing knee replacement surgery was measured according to the method described by Brennan, F. M. et al (The Lancet. July 29: 244-247, (1989)). The synovial membrane tissue was digested in DMEM (Gibco) containing 10% FBS, 100 U/ml penicillin and 100 μg/ml streptomycin, 4 mg/ml collagenase type I (Worthington), 1.5 μg/ml Dnase type I (Sigma) and 15 U/ml heparin and incubated at 37° C. for 3 hours. After incubation, the digested tissue was filtered through a 70-μm membrane and the cells washed 3 times in complete medium (DMEM with 10% FBS). The synovial cells were cultured at 1×10^6 cells/ml in presence/absence of the test sample for 10 hours. The supernatants were harvested by centrifugation and levels of the cytokines (TNF-α, IL-1β, IL-6, IL-8) measured by ELISA. To assess the cytotoxic effect of the plant extracts, the cellular viability test was performed using MTS reagent. The 50% inhibitory concentration (IC50) values were calculated by a nonlinear regression method using GraphPad software (Prism 3.03).
Effect on proinflammatory cytokines produced by synovial cells obtained from a RA patient was studied for compound 1 as described by procedure of example 8.

[1] = tested on: Collagen-induced arthritis (CIA); assay: Collagen-induced arthritis (CIA) in DBA/1J mice; type: in vivo; conditions: compared to vehicle treated group; H&E and Safranin O staining
Protocol: Male DBA/1J mice, aged 8-10 weeks, were immunized with 200 μg Collagen Type II as an emulsion in Freund's Complete Adjuvant, by an intradermal injection at the base of the tail. Twenty-one days later, the mice were administered a booster shot of 100 μg Collagen Type II. A set of naïve mice was also maintained alongside. From Day 23 onwards, the mice were assessed for the onset of rheumatoid arthritis using the Articular Index as a parameter. Mice with a minimum hind paw score of 2 were inducted into the study. Extract of example 1 was administered at a dose of 400 mpk (Milligram per kilogram body weight) by oral route twice daily for 12 days. Compound 1 was administered at a dose of 50 mpk and 100 mpk. by oral route twice daily for 12 days. Enbrel (3 mg/kg) was used as a standard and was given subcutaneous once daily. Paw volume and articular index were recorded daily. The data was analysed for statistical significance. On termination of the experiment the paws of the mice were processed for histopathological evaluation. Beneficial effect of extract of example 1 and compound 1 on pathology of arthritic (CIA) DBA/1J mice was evaluated. Microscopy was carried out after Hematoxylin and Eosin staining as well as Safranin O staining of synovial joints.

- IC50 (IL-8): 8.9 µM
- IC50 (TNF-α): 0.8 µM
SMILES: C=C1C(=O)OC2C3=C(C)CCCC3(C)CCC12O (stereo not drawn) [Compound 1, 3a-hydroxy-5a,9-dimethyl-3-methylene-3a,4,5,5a,6,7,8,9b-octahydro-3H-naphtho[1,2-b]furan-2-one]
- Histopathological analysis of synovial joints [1]: beneficial effects in terms of reducing cartilage destruction, bone destruction and synovitis
